# Reference: patent publication US20090069320A1, “Substituted 4-Amino-Quinazoline Compounds with Metabotropic Glutamate Receptor Regulating Activity and Uses Thereof” (Gruenenthal GmbH, priority 2006, published 2009)
# Molecular target: T1, mGluR5 receptor (Sus scrofa, UniProt I3LUI7)
# T1 construct: 450 μg of protein from brain homogenate with 5 nM ^3[H]-MPEP; from tissue; host or cells: pig brain halves without medulla, cerebellum and pons
# Assay: [3H]-MPEP mGluR5 receptor binding assay (pig brain homogenate)
# Settings: 5 nM [3H]-MPEP, read-out: IC50 mGluR5 Receptor (pig) [^3H]-MPEP Bond
# Summary of the method: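 Radioligand displacement of 5 nM [3H]-MPEP from pig brain homogenate (450 μg protein; medulla, cerebellum and pons removed) in 20 mM Hepes pH 8.0. Compounds were tested at 10 μM, incubated 60 min at room temperature, then filtered and counted by scintillation. Non-specific binding was defined with 10 μM MPEP.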
# T1 sequence (I3LUI7 19-1212): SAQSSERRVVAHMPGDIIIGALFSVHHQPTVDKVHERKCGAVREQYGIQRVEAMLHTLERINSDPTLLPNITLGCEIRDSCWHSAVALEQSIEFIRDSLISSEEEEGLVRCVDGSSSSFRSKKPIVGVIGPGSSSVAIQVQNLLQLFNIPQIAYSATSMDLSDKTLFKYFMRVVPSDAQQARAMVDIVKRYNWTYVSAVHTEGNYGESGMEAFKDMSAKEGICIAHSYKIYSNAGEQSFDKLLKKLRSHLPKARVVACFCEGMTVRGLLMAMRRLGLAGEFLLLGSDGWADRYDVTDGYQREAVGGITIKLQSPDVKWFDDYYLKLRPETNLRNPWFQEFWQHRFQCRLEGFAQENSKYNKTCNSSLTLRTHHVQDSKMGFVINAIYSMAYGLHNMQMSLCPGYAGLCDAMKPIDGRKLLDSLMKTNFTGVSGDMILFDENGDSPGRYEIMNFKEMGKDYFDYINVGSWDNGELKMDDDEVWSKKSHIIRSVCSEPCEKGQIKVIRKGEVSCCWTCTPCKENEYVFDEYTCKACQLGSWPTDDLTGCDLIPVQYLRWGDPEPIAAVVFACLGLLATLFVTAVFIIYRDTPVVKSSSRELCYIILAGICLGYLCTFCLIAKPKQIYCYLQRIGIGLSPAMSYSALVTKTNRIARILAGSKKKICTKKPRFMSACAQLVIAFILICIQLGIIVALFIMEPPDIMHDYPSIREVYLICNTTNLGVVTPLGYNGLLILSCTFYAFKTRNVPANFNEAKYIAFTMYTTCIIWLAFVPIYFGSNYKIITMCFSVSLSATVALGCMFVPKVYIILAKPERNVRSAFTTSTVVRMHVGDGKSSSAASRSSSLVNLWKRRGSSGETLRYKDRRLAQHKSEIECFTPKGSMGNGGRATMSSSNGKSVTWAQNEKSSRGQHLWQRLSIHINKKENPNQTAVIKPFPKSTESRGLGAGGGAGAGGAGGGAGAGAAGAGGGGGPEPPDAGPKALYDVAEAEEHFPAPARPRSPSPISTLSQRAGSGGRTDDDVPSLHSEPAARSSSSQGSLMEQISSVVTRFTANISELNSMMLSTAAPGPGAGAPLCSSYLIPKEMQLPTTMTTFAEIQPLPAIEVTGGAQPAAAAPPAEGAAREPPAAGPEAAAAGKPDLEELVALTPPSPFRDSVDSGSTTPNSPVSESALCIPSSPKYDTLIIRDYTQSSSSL
row,Structure (SMILES),IC50
1,"O=C(c1ccno1)N(Cc1cc(-c2ccc3ncnc(NC4CC4)c3c2)ccc1F)C1CC1 [Example 457, N-cyclopropyl-N-(5-(4-(cyclopropylamino)quinazolin-6-yl)-2-fluorobenzyl)isoxazole-5-carboxamide]",210 nM

# Same assay, conditions: 10 μM compound, 5 nM [3H]-MPEP
row,Structure (SMILES),% Inhibition of mGluR5 Receptor (pig) [^3H]-MPEP Bond at 10 μM
1,"CCCCC(=O)N(C)Cc1cc(-c2ccc3ncnc(NCc4ccccc4)c3c2)ccc1F [Example 549, N-(5-(4-(benzylamino)quinazolin-6-yl)-2-fluorobenzyl)-N-methyl pentanamide]",32%

# Same assay, conditions: 10 μM compound, 5 nM [3H]-MPEP, read-out: % Inhibition of mGluR5 Receptor (pig) [^3H]-MPEP Bond at 10 μM
row,Structure (SMILES),inhibition at 10 µM
1,"CC(C)S(=O)(=O)N(Cc1cc(-c2ccc3ncnc(NC4CC4)c3c2)ccc1F)C1CC1 [Example 429, N-cyclopropyl-N-(5-(4-(cyclopropylamino)quinazolin-6-yl)-2-fluorobenzyl)propane-2-sulfonamide]",92%
2,"COCC(=O)N(Cc1cccc(-c2ccc3ncnc(NCc4cccc(C)c4)c3c2)c1)C1CC1 [Example 434, N-cyclopropyl-2-methoxy-N-(3-(4-(3-methylbenzylamino)quinazolin-6-yl)benzyl)acetamide]",62%
3,"Cc1cc(C(=O)N(Cc2cc(-c3ccc4ncnc(NC5CC5)c4c3)ccc2F)C2CC2)n(C)n1 [Example 435, N-cyclopropyl-N-(5-(4-(cyclopropylamino)quinazolin-6-yl)-2-fluorobenzyl)-1,3-dimethyl-1H-pyrazole-5-carboxamide]",87%
4,"O=C(c1ccncc1)N(Cc1cc(-c2ccc3ncnc(NC4CC4)c3c2)ccc1F)C1CC1 [Example 436, N-cyclopropyl-N-(5-(4-(cyclopropylamino)quinazolin-6-yl)-2-fluorobenzyl)isonicotinamide]",98%
5,"O=S(=O)(Cc1ccccc1)N(Cc1cc(-c2ccc3ncnc(NC4CC4)c3c2)ccc1F)C1CC1 [Example 437, N-cyclopropyl-N-(5-(4-(cyclopropylamino)quinazolin-6-yl)-2-fluorobenzyl)-1-phenylmethane sulfonamide]",90%
6,"CS(=O)(=O)N(Cc1cccc(-c2ccc3ncnc(NCCc4ccccc4)c3c2)c1)C1CC1 [Example 440, N-cyclopropyl-N-(3-(4-(phenethylamino)quinazolin-6-yl)benzyl)methane sulfonamide]",73%
7,"Cc1nc(NC2CC2)c2cc(-c3cccc(CN(C(=O)c4c(F)c(F)c(F)c(F)c4F)C4CC4)c3)ccc2n1 [Example 447, N-cyclopropyl-N-(3-(4-(cyclopropylamino)-2-methylquinazolin-6-yl)benzyl)-2,3,4,5,6-pentafluorobenzamide]",85%
8,"O=C(C1CCCCC1)N(Cc1cc(-c2ccc3ncnc(NC4CC4)c3c2)ccc1F)C1CC1 [Example 452, N-cyclopropyl-N-(5-(4-(cyclopropylamino)quinazolin-6-yl)-2-fluorobenzyl)cyclohexane carboxamide]",71%
9,"Cc1nc(NC2CC2)c2cc(-c3cccc(CN(C(=O)c4ccc(C(F)(F)F)cc4F)C4CC4)c3)ccc2n1 [Example 454, N-cyclopropyl-N-(3-(4-(cyclopropylamino)-2-methylquinazolin-6-yl)benzyl)-2-fluoro-4-(trifluoromethyl)benzamide]",34%
10,"Cc1nc(NC2CC2)c2cc(-c3cccc(CN(C(=O)c4cccc(C(F)(F)F)c4)C4CC4)c3)ccc2n1 [Example 462, N-cyclopropyl-N-(3-(4-(cyclopropylamino)-2-methylquinazolin-6-yl)benzyl)-3-(trifluoromethyl)benzamide]",48%
11,"Cc1nc(NC2CC2)c2cc(-c3ccc(F)c(CN(C(=O)c4ccccc4C(F)(F)F)C4CC4)c3)ccc2n1 [Example 470, N-cyclopropyl-N-(5-(4-(cyclopropylamino)-2-methylquinazolin-6-yl)-2-fluorobenzyl)-2-(trifluoromethyl)benzamide]",93%
12,"CC(C)S(=O)(=O)N(C)Cc1cc(-c2ccc3ncnc(NCc4ccccc4)c3c2)ccc1F [Example 484, N-(5-(4-(benzylamino)quinazolin-6-yl)-2-fluorobenzyl)-N-methylpropane-2-sulfonamide]",63%
13,"Cc1cc(C(=O)N(Cc2cccc(-c3ccc4nc(C)nc(NC5CC5)c4c3)c2)C2CC2)n(C)n1 [Example 485, N-cyclopropyl-N-(3-(4-(cyclopropylamino)-2-methylquinazolin-6-yl)benzyl)-1,3-dimethyl-1H-pyrazole-5-carboxamide]",32%
14,"Cc1nc(NC2CC2)c2cc(-c3cccc(CN(C(=O)c4cccc(F)c4)C4CC4)c3)ccc2n1 [Example 509, N-cyclopropyl-N-(3-(4-(cyclopropylamino)-2-methylquinazolin-6-yl)benzyl)-3-fluorobenzamide]",31%
15,"Cc1nc(NC2CC2)c2cc(-c3cccc(CN(C(=O)c4ccc(F)cc4F)C4CC4)c3)ccc2n1 [Example 517, N-cyclopropyl-N-(3-(4-(cyclopropylamino)-2-methylquinazolin-6-yl)benzyl)-2,4-difluorobenzamide]",59%
16,"CCCCC(=O)N(Cc1cccc(-c2ccc3nc(C)nc(NC4CC4)c3c2)c1)C1CC1 [Example 519, N-cyclopropyl-N-(3-(4-(cyclopropylamino)-2-methylquinazolin-6-yl)benzyl)pentanamide]",76%

row,Structure (SMILES),inhibition at 10 µM
1,"Cc1nc(NC2CC2)c2cc(-c3ccc(F)c(CN(C(=O)c4ccc(F)cc4F)C4CC4)c3)ccc2n1 [Example 524, N-cyclopropyl-N-(5-(4-(cyclopropylamino)-2-methylquinazolin-6-yl)-2-fluorobenzyl)-2,4-difluorobenzamide]",85%
2,"Cc1nc(NC2CC2)c2cc(-c3ccc(F)c(CN(C(=O)c4ccc(C(F)(F)F)cc4F)C4CC4)c3)ccc2n1 [Example 532, N-cyclopropyl-N-(5-(4-(cyclopropylamino)-2-methylquinazolin-6-yl)-2-fluorobenzyl)-2-fluoro-4-(trifluoromethyl)benzamide]",61%
3,"CCCCC(=O)N(Cc1cc(-c2ccc3nc(C)nc(NC4CC4)c3c2)ccc1F)C1CC1 [Example 540, N-cyclopropyl-N-(5-(4-(cyclopropylamino)-2-methylquinazolin-6-yl)-2-fluorobenzyl)pentanamide]",91%
4,"Cc1cc(C(=O)N(Cc2cc(-c3ccc4nc(C)nc(NC5CC5)c4c3)ccc2F)C2CC2)n(C)n1 [Example 542, N-cyclopropyl-N-(5-(4-(cyclopropylamino)-2-methylquinazolin-6-yl)-2-fluorobenzyl)-1,3-dimethyl-1H-pyrazole-5-carboxamide]",33%
5,"Cc1nc(NC2CC2)c2cc(-c3cccc(CN(C(=O)Cc4ccccc4)C4CC4)c3)ccc2n1 [Example 544, N-cyclopropyl-N-(3-(4-(cyclopropylamino)-2-methylquinazolin-6-yl)benzyl)-2-phenylacetamide]",66%
6,"Cc1nc(NC2CC2)c2cc(-c3ccc(F)c(CN(C(=O)c4ccccc4)C4CC4)c3)ccc2n1 [Example 550, N-cyclopropyl-N-(5-(4-(cyclopropylamino)-2-methylquinazolin-6-yl)-2-fluorobenzyl)benzamide]",40%
7,"COCC(=O)N(C)Cc1cc(-c2ccc3ncnc(NCc4ccccc4)c3c2)ccc1F [Example 557, N-(5-(4-(benzylamino)quinazolin-6-yl)-2-fluorobenzyl)-2-methoxy-N-methylacetamide]",42%
8,"COc1ccc(C(=O)N(Cc2cc(-c3ccc4nc(C)nc(NC5CC5)c4c3)ccc2F)C2CC2)cc1OC [Example 558, N-cyclopropyl-N-(5-(4-(cyclopropylamino)-2-methylquinazolin-6-yl)-2-fluorobenzyl)-3,4-dimethoxybenzamide]",42%
9,"Cc1nc(NC2CC2)c2cc(-c3ccc(F)c(CN(C(=O)c4cccc(F)c4)C4CC4)c3)ccc2n1 [Example 566, N-cyclopropyl-N-(5-(4-(cyclopropylamino)-2-methylquinazolin-6-yl)-2-fluorobenzyl)-3-fluorobenzamide]",61%
10,"Cc1nc(NC2CC2)c2cc(-c3ccc(F)c(CN(C(=O)c4c(F)c(F)c(F)c(F)c4F)C4CC4)c3)ccc2n1 [Example 574, N-cyclopropyl-N-(5-(4-(cyclopropylamino)-2-methylquinazolin-6-yl)-2-fluorobenzyl)-2,3,4,5,6-pentafluorobenzamide]",106%
11,"CNc1ncnc2ccc(-c3ccc(F)c(CN(C)S(=O)(=O)C(C)C)c3)cc12 [Example 578, N-(2-fluoro-5-(4-(methylamino)quinazolin-6-yl)benzyl)-N-methylpropane-2-sulfonamide]",76%
12,"Cc1nc(NC2CC2)c2cc(-c3ccc(F)c(CN(C(=O)c4cccc(C(F)(F)F)c4)C4CC4)c3)ccc2n1 [Example 582, N-cyclopropyl-N-(5-(4-(cyclopropylamino)-2-methylquinazolin-6-yl)-2-fluorobenzyl)-3-(trifluoromethyl)benzamide]",80%
13,"CNc1ncnc2ccc(-c3ccc(F)c(CN(C)C(=O)c4c(F)c(F)c(F)c(F)c4F)c3)cc12 [Example 585, 2,3,4,5,6-pentafluoro-N-(2-fluoro-5-(4-(methylamino)quinazolin-6-yl)benzyl)-N-methylbenzamide]",70%
14,"CNc1ncnc2ccc(-c3ccc(F)c(CN(C)S(=O)(=O)Cc4ccccc4)c3)cc12 [Example 586, N-(2-fluoro-5-(4-(methylamino)quinazolin-6-yl)benzyl)-N-methyl-1-phenylmethane sulfonamide]",62%
15,"CNc1ncnc2ccc(-c3ccc(F)c(CN(C)C(=O)c4ccc(C(F)(F)F)cc4F)c3)cc12 [Example 593, 2-fluoro-N-(2-fluoro-5-(4-(methylamino)quinazolin-6-yl)benzyl)-N-methyl-4-(trifluoromethyl)benzamide]",52%
